Reference: paper PMC3265452 (PLoS Neglected Tropical Diseases, 2012)
Where a name gives a salt, the structure may show the parent alone.

These molecules were tested against AaDOP2 (Aedes aegypti, UniProt H6D5H2) (assay: AaDOP2 antagonist screen of the LOPAC1280 library (HEK-CRELuc-Aadop2 cells, luminescence)). Details: not given.
Type: cell-based

AaDOP2, sequence (H6D5H2 1-476): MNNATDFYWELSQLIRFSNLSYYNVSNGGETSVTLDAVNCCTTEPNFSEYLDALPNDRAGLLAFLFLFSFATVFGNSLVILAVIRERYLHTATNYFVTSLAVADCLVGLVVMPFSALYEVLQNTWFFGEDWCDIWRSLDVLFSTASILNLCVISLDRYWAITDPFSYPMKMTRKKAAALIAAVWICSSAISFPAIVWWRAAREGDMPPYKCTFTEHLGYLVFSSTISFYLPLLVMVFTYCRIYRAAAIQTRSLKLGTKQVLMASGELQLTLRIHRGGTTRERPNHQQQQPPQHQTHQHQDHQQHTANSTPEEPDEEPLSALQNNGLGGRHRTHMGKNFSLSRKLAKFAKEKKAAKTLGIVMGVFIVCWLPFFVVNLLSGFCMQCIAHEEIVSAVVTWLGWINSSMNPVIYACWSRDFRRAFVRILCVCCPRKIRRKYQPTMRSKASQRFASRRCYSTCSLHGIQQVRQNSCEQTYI

In order of rising “Compound effect (percent receptor signaling in presence of test compound, relative lux units relative to the SCH23390 control)” value:
1. Cc1nc2ccccn2c(=O)c1CCN1CCC(C(=O)c2ccc(F)cc2)CC1 [Compound 1013, Pirenperone]  10
2. O=c1c(O)c(-c2ccc(O)c(O)c2)oc2cc(O)cc(O)c12 [Compound 1028, Quercetin dihydrate]  34
3. NC(=Nc1ccccc1)NC(=O)c1nc(Cl)c(N)nc1N [Compound 1020, Phenamil methanesulfonate]  46
4. CN(C)S(=O)(=O)c1ccc2c(c1)/C(=C/c1cc3c([nH]1)CCCC3)C(=O)N2 [Compound 1026, SU 6656]  65
5. C=C[C@H]1C[N@@]2CC[C@H]1C[C@@H]2[C@@H](O)c1ccnc2ccc(OC)cc12 [Compound 1029, Quinidine sulfate]  69
6. NCC(CP(=O)(O)O)c1ccc(Cl)cc1 (centres unmarked) [Compound 1009, Phaclofen]  71
7. O=C(O)/C=C\C(=O)O.O=C(O)/C=C\C(=O)O.c1ccc2nc(N3CCNCC3)ccc2c1 [Compound 1030, Quipazine dimaleate]  71
8. CN/C(=N\c1ccc(C2=NNC(=O)CC2C)cc1)NC#N (centres unmarked) [Compound 1012, SKF 94836]  72
9. COc1cc(OC)c(C=C2C(O)=Nc3ccccc32)c(OC)c1 [Compound 1014, IC 261]  78
10. C=C[C@H]1C[N@@]2CC[C@H]1C[C@H]2[C@H](O)c1ccnc2ccc(OC)cc12 [Compound 1031, Quinine sulfate]  79
11. N[C@@H](Cn1oc(=O)[nH]c1=O)C(=O)O [Compound 1032, (+)-Quisqualic acid]  80
12. N=C(N)NC(=N)Nc1ccccc1 [Compound 1011, 1-Phenylbiguanide]  81
13. O=C(O)c1cccnc1C(=O)O [Compound 1027, Quinolinic acid]  83
14. CC(C)NC[C@H](O)COc1cccc2[nH]ccc12 [Compound 1015, S(-)-Pindolol]  87
15. CC(N/C(=N\C#N)Nc1ccncc1)C(C)(C)C (centres unmarked) [Compound 1016, Pinacidil]  89
16. Cc1cccc(C(=O)NCN2CCN(c3ccccc3C#N)CC2)c1.O=C(O)/C=C\C(=O)O [Compound 1025, PD 168,077 maleate]  91
17. COc1cccc(-c2cc(=O)c3ccccc3o2)c1N [Compound 1023, PD 98,059]  94
18. CCN(CC)CCCC(C)Nc1c2ccc(Cl)cc2nc2ccc(OC)cc12 (centres unmarked) [Compound 1033, Quinacrine dihydrochloride]  94
19. CCN(CC)CCOC(=O)c1ccc(N)cc1 [Compound 1001, Procaine hydrochloride]  96
20. OC[C@H]1O[C@@H](n2cnc3c(Nc4ccccc4)ncnc32)[C@H](O)[C@@H]1O [Compound 1008, N6-Phenyladenosine]  99
21. C[C@]12CCC(=O)C=C1CC[C@@H]1[C@@H]2CC[C@@]2(C)[C@H]1CC[C@]2(O)C(=O)CO [Compound 1040, Cortexolone]  99
22. OC[C@H]1O[C@@H](n2cnc3c(NCCc4ccccc4)ncnc32)[C@H](O)[C@@H]1O [Compound 1007, N6-2-Phenylethyladenosine]  104
23. Nc1nc(Nc2ccccc2)nc2c1ncn2[C@@H]1O[C@H](CO)[C@@H](O)[C@H]1O [Compound 1002, 2-Phenylaminoadenosine]  106
24. CC(=O)[C@H]1CC[C@H]2[C@@H]3CC=C4C[C@@H](OS(=O)(=O)[O-])CC[C@]4(C)[C@H]3CC[C@]12C.[Na+] [Compound 1017, Pregnenolone sulfate sodium]  107
25. C[C@@H]1C(=O)NC2=Nc3cccc(Cl)c3CN21 [Compound 1034, Quazinone]  108

Same assay, conditions: 10 µM compound, 300 nM dopamine, 2 hr; hit = compound effect <20

In order of falling “Compound effect (percent receptor signaling in presence of test compound, relative lux units relative to the SCH23390 control)” value:
1. Cc1nc(N=Nc2ccc(S(=O)(=O)O)cc2S(=O)(=O)O)c(COP(=O)(O)O)c(C=O)c1O [Compound 1018, PPADS]  103%
2. CCCN1CCC[C@@H]2Cc3nc(N)ncc3C[C@H]21 [Compound 1038, Quinelorane dihydrochloride]  99%
3. O=C([O-])CCC(NC(=O)c1ccccc1C(=O)[O-])C(=O)[O-].[Na+].[Na+].[Na+] [Compound 1022, Phthalamoyl-L-glutamic acid trisodium]  97%
4. O=C(O)/C=C\C(=O)O.O=[N+]([O-])c1ccc2nc(N3CCNCC3)ccc2c1 [Compound 1037, Quipazine, 6-nitro-, maleate]  92%
5. Cl.NCC#Cc1ccccc1 [Compound 1006, 3-Phenylpropargylamine hydrochloride]  91%
6. CCCN1CCC[C@@H](c2cccc(O)c2)C1.Cl [Compound 1004, S(-)-3PPP hydrochloride]  89%
7. CCCN1CCO[C@@H]2c3cc(O)ccc3OC[C@H]21.Cl [Compound 1019, S(+)-PD 128,907 hydrochloride]  89%
8. CCCN1CCC[C@H](c2cccc(O)c2)C1.Cl [Compound 1003, R(+)-3PPP hydrochloride]  86%
9. CN1CCN(c2ccc3ccccc3n2)CC1.O=C(O)/C=C\C(=O)O.O=C(O)/C=C\C(=O)O [Compound 1036, Quipazine, N-methyl-, dimaleate]  74%

Same assay, conditions: read-out: % of the SCH23390 effect (percent inhibition of receptor response relative to the SCH23390 control)

For `Cc1nc2ccccn2c(=O)c1CCN1CCC(C(=O)c2ccc(F)cc2)CC1` [Compound 1013, Pirenperone], the inhibition at 10 µM was 90%.
